What all share (experiment): inhibition of tumour cell growth, NCI panel, 48 h
Experiment [1] relates to DLD-1.
In experiment [2] the test system is DMS-114.
Experiment [3] deals with DMS-273.
Experiment [4] has as its system LXFL 529.
Experiment [5] deals with M19-MEL.
In experiment [6] the test system is SNB-78.
The test system of experiment [7] is XF498.
The test system of experiment [8] is HOP-18.
In experiment [9] the test system is RXF 631.

Results on 22 compounds are retold here after ChEMBL document CHEMBL1201862, “PubChem BioAssay data set” (2004).

SMILES strings stand for the structures. Where “and” joins values, the source holds several entries; their conditions need not be identical. Equal values may be shown once.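 Each compound was tested at five concentrations against cells in 96-well plates for 48 hours. Abbreviation: GI50, concentration required for 50% inhibition of growth.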 Calls of active or inactive are those of the source. Cut-off read from the data, not from the text of the source: active = GI50 up to about 1.1 µM and inactive = higher. Non-standard residues stand in square brackets, D forms with d. Residues, ends and D or L forms follow the SMILES beside them. ξ: configuration not given here. *: point of attachment. NMeF = CN[C@@H](Cc1ccccc1)C(=O)O; ξNMeV = CNC(C(=O)O)C(C)C; Boc = CC(C)(C)OC(=O)*; OBn = c1ccc(CO*)cc1

Turning to `C=CCn1c(=S)sc2c(O)ncnc21`, the GI50 in experiment [1], in [2], in experiment [3], in experiment [4], in experiment [5] and in experiment [6] was > 100 µM (inactive) each time. Besides, the GI50 in [7] was > 100 µM (inactive).

With `Sc1nnc(-c2cccnc2)[nH]1`, the GI50 in [1], in experiment [2], in experiment [3], in experiment [8], in experiment [4] and in experiment [6] was > 100 µM (inactive) in each case. Besides, the GI50 in experiment [7] was > 100 µM (inactive).

Regarding `COC(=O)C(Cc1nc2ccccc2nc1C)/C(=N\NC(N)=O)C(=O)Nc1cccc([N+](=O)[O-])c1` (stereo unspecified), the GI50 in [1] is > 100 µM (inactive); in [2], 51.5 µM (inactive); in experiment [8] it was > 100 µM (inactive); in [4], 37.7 µM (inactive); in experiment [5], 37.9 µM (inactive); in experiment [9], > 100 µM (inactive). Also, the GI50 in [6] and in experiment [7] was > 100 µM (inactive) each time.

For `Cc1ccc(N2C(=O)/C(=C3\Sc4c(nc(C)[nH]c4=O)N3c3ccccc3)SC2=S)cc1`, the GI50 was 91.2 µM (inactive) in experiment [1]; 72.6 µM (inactive) in [2]; 34.6 µM (inactive) in experiment [3]; 18.5 µM (inactive) in experiment [4]; 63.5 µM (inactive) in experiment [5]; 39 µM (inactive) in [6]. Also, in experiment [7], the GI50 was 20.9 µM (inactive).

In the case of `CCOC(=O)/C(=C/c1cccc(OC)c1)N(CC)CC`, the GI50 in [2], in [3], in experiment [4], in experiment [5], in experiment [6] and in [7] was > 100 µM (inactive) in each case.

Take `C=CCCCCCC(O)C(O)C/C=C\C/C=C\CC` (stereo unspecified): the GI50 was > 18.8 µM (inactive) in experiment [1]; > 16.8 µM (inactive) in [2]; > 18.8 µM (inactive) in experiment [3]; > 18.8 µM (inactive) in experiment [8]; > 18.8 µM (inactive) in [4]; > 18.8 µM (inactive) in [6]. Moreover, the GI50 in experiment [7] was > 18.8 µM (inactive).

Regarding `Clc1cc2n[se]nc2cc1Cl`, the GI50 in experiment [1], in [2], in [3], in experiment [8], in experiment [4] and in experiment [5] was > 100 µM (inactive) each time. In addition, the GI50 in experiment [9], in experiment [6] and in experiment [7] was > 100 µM (inactive) each time.

As to `O=C1c2ccccc2N2OC3(N4CCCC4)CCCC3C12c1ccccc1` (stereo unspecified), the GI50 is > 100 µM (inactive) in [1]; 83.4 µM (inactive) in experiment [2]; 67.6 µM (inactive) in experiment [3]; > 100 µM (inactive) in [8]; 67.8 µM (inactive) in experiment [4]; > 100 µM (inactive) in experiment [5]. The figures for the GI50 in experiment [6] and in [7] were > 100 µM (inactive) and 92.3 µM (inactive), respectively.

Consider `C1COCCN1.S=C(S)N1CCOCC1`, for which the GI50 is 0.628 µM (active) in [1]; 0.279 µM (active) in [2]; 1.38 µM (inactive) in [3]; > 100 µM (inactive) in experiment [8]; 1.34 µM (inactive) in [4]; 1.25 µM (inactive) in experiment [5]. Besides, the values for the GI50 in [6] and in experiment [7] were 41.5 µM (inactive) and 1.92 µM (inactive), respectively.

Turning to `COc1cccc2c(SCC(=O)Nc3ccccc3-c3ccccc3NC(=O)CSc3c4ccccc4nc4c(OC)cccc34)c3ccccc3nc12`, the GI50 was > 100 µM (inactive) in experiment [1]; 29.1 µM (inactive) in experiment [2]; 71.3 µM (inactive) in experiment [3]; 47.6 µM (inactive) in experiment [9]; > 100 µM (inactive) in experiment [6]; 76.6 µM (inactive) in [7].

`CCCC(N)C(=O)c1ccccc1` (stereo unspecified): the GI50 in experiment [1], in [2], in experiment [3], in [8], in [4] and in experiment [6] was > 100 µM (inactive) each time. Further, the GI50 in experiment [7] was > 100 µM (inactive).

With `CCOC(=O)c1cnc2[nH]c(=O)c3ccccc3n2c1=O`, the GI50 in [1], in experiment [3], in [8], in experiment [4], in [5] and in experiment [9] was > 100 µM (inactive) each time. The GI50 in experiment [6] and in [7] was > 100 µM (inactive) throughout.

For the compound `COC1=C(NC(C)=O)C(=O)c2nc3n(c2C1=O)CCC3`, the GI50 was 15 µM (inactive) in experiment [1]; 12.2 µM (inactive) in experiment [2]; 18.7 µM (inactive) in experiment [3]; 18.9 µM (inactive) in experiment [8]; 13 µM (inactive) in [6]; 19.1 µM (inactive) in experiment [7].

Take `NC1=NS(=O)(=O)Nc2nc(-c3ccc(Cl)cc3)c(-c3ccc(Cl)cc3)nc21`: the GI50 in [1] was > 100 µM (inactive); in experiment [2] it was 32.1 µM (inactive); in experiment [3], > 100 µM (inactive); in experiment [8], > 100 µM (inactive); in experiment [4], 34.9 µM (inactive); in [5], > 100 µM (inactive). Also, the GI50 in experiment [9] was > 100 µM (inactive); in experiment [6], > 100 µM (inactive); in experiment [7] it was 69.3 µM (inactive).

`Nc1ccc(C(=O)O)c2[nH]c3ccccc3c(=O)c12`: the GI50 in [1], in [2], in [3], in experiment [8], in experiment [4] and in [5] was > 100 µM (inactive) throughout. Further, the GI50 in experiment [6] is > 100 µM (inactive).

In the case of `CC1=C(C(=O)Nc2c(C)cccc2C)C(c2ccc3c(c2)OCO3)C(C(=O)Nc2c(C)cccc2C)=C(C)N1`, the GI50 was 19.3 µM (inactive) in experiment [1]; 16.6 µM (inactive) in experiment [2]; 18.9 µM (inactive) in [8]; 18 µM (inactive) in [4]; 16.7 µM (inactive) in experiment [9]; 17.6 µM (inactive) in experiment [6].

For `CCCCCC(CN1CCOCC1)C(=O)/C=C/c1ccccc1` (stereo unspecified), the GI50 in experiment [2] is 1.79 µM (inactive); in experiment [3], 2.31 µM (inactive); in [5] it was 2.41 µM (inactive); in experiment [6], 6.9 µM (inactive); in [7], 1.72 µM (inactive).

As to `O=S(O)CCCCSSCC(O)C(O)CSSCCCCS(=O)O` (stereo unspecified), the GI50 was 41.1 µM (inactive) and 68.4 µM (inactive) in [1]; 18.3 µM (inactive) and 14.6 µM (inactive) in experiment [2]; 35 µM (inactive) and 19.7 µM (inactive) in experiment [3]; > 100 µM (inactive) in [8]; 9.35 µM (inactive) and 12.5 µM (inactive) in experiment [4]; 5.48 µM (inactive) and 3.37 µM (inactive) in [5]. For the same compound, the GI50 in [9] was 22.2 µM (inactive) and 29.2 µM (inactive); in [6], 18.2 µM (inactive) and 20.9 µM (inactive); in experiment [7], 12.4 µM (inactive) and 19 µM (inactive).

Turning to `COCOCC[C@@H]1CC=CC(NC(=O)OCc2ccccc2)C1/C=C/C(=O)CCC1OCCO1` (stereo partly specified), the GI50 is 17.1 µM (inactive) in experiment [1]; 29.9 µM (inactive) in experiment [2]; 23 µM (inactive) in experiment [3]; 34.3 µM (inactive) in experiment [8]; 22.4 µM (inactive) in [4]; 19.1 µM (inactive) in [5]. Further, the GI50 in experiment [6] is 48.1 µM (inactive); in experiment [7], 34.4 µM (inactive).

As for `CCN(CC)CCCCC1CCN(CC(=O)N2c3ccccc3NC(=O)c3ccccc32)CC1`, the GI50 in [1], in [2], in experiment [3], in experiment [4], in [5] and in experiment [9] was > 100 µM (inactive) each time. In addition, the GI50 in [6] and in experiment [7] was > 100 µM (inactive) each time.

With `[N-]=[N+]=NC1C(Cl)C(=O)NC(=O)N1[C@H]1C[C@H](O)[C@@H](CO)O1` (stereo partly specified), the GI50 in experiment [1], in [2], in experiment [3], in experiment [4], in experiment [9] and in experiment [6] was > 100 µM (inactive) each time. The GI50 in experiment [7] is > 100 µM (inactive).

With `CC(C)C(C(=O)N1CCC[C@@H]1C(=O)OCc1ccccc1)N(C)C(=O)C(C(C)C)N(C)C(=O)[C@H](Cc1ccccc1)N(C)C(=O)[C@H](NC(=O)OC(C)(C)C)C(C)C` (stereo partly specified) (Boc-[dV][NMeF][ξNMeV][ξNMeV][dP]-OBn), the GI50 in experiment [1] is > 100 µM (inactive); in experiment [2], 8.57 µM (inactive); in experiment [3], 42.9 µM (inactive); in experiment [8], > 100 µM (inactive); in experiment [4], 8.81 µM (inactive); in experiment [5], > 48.5 µM (inactive). For the same compound, the GI50 in experiment [6] was > 100 µM (inactive); in experiment [7] it was > 68.5 µM (inactive).
